Among the data in ChEMBL document CHEMBL1811896, “Isoflavone dimers and other bioactive constituents from the figs of Ficus mucuso” (J Nat Prod, 2011) are IC50, inhibition and Ratio IC50 values, retold here.

Active and inactive are the calls of the source. The rule behind the calls is not given here.

The nature of assay [1]: Inhibition of Escherichia coli beta-glucuronidase assessed as inhibition of p-nitrophenyl-beta-D-glucuronide hydrolysis preincubated for 30 mins measured 30 mins after substrate addition by spectrophotometry.
Assay [2] deals with T1, Enoyl-acyl-carrier protein reductase (Plasmodium falciparum) (UniProt Q965D5).
T1 sequence (whole entry): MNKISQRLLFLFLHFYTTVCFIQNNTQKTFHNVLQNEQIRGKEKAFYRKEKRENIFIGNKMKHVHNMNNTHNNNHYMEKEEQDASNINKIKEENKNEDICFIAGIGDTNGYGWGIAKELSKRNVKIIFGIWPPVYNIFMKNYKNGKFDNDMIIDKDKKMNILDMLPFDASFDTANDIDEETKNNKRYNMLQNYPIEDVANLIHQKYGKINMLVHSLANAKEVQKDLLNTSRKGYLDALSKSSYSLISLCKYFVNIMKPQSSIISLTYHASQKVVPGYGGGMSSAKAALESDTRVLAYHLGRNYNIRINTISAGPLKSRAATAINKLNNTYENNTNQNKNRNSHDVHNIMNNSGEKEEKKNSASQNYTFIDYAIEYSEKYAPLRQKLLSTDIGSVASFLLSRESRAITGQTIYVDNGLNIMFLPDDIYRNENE
Description: Inhibition of Plasmodium falciparum Enoyl-ACP reductase using crotonyl-CoA as substrate at 0.15 mM peincubated for 5 mins measured after 10 mins of substrate addition by UV-vis spectrophotometry.

Assay [3] deals with Escherichia coli. Briefly: Inhibition of Escherichia coli beta-glucuronidase assessed as inhibition of p-nitrophenyl-beta-D-glucuronide hydrolysis at 0.20 mM preincubated for 30 mins measured 30 mins after substrate addition by spectrophotometry.
Assay [4] concerns the target T1, Enoyl-acyl-carrier protein reductase (Plasmodium falciparum). Briefly: (§1) Inhibition of Plasmodium falciparum Enoyl-ACP reductase using crotonyl-CoA as substrate peincubated for 5 mins measured after 10 mins of substrate addition by UV-vis spectrophotometry.
The target is the same in assay [5]. Briefly: Inhibition of Plasmodium falciparum Enoyl-ACP reductase using crotonyl-CoA as substrate at 0.25 mM peincubated for 5 mins measured after 10 mins of substrate addition by UV-vis spectrophotometry.
Assay [6] has as its system Escherichia coli. Description: Inhibition of Escherichia coli beta-glucuronidase assessed as inhibition of p-nitrophenyl-beta-D-glucuronide hydrolysis at 0.08 mM preincubated for 30 mins measured 30 mins after substrate addition by spectrophotometry.
Assay [7] has as its target T2, Enoyl-acyl-carrier protein reductase (Plasmodium falciparum, UniProt Q965D5).
T2 sequence (Q965D5 whole entry): T1 sequence (whole entry)
Described as §1.

Assay [8] addresses T1, Enoyl-acyl-carrier protein reductase (Plasmodium falciparum). Particulars: 0.1 mM.
Description: Inhibition of Plasmodium falciparum Enoyl-ACP reductase using crotonyl-CoA as substrate at 0.1 mM peincubated for 5 mins measured after 10 mins of substrate addition by UV-vis spectrophotometry
Assay [9] relates to Escherichia coli. Description: Ratio of D-saccharic acid-1,4-lactone IC50 to compound IC50 for Escherichia coli beta-glucuronidase.
In assay [10] the test system is Escherichia coli. Description: Inhibition of Escherichia coli beta-glucuronidase assessed as inhibition of p-nitrophenyl-beta-D-glucuronide hydrolysis at 0.05 mM preincubated for 30 mins measured 30 mins after substrate addition by spectrophotometry.
The target of assay [11] is T1, Enoyl-acyl-carrier protein reductase (Plasmodium falciparum). Description: Inhibition of Plasmodium falciparum Enoyl-ACP reductase using crotonyl-CoA as substrate at 0.025 mM peincubated for 5 mins measured after 10 mins of substrate addition by UV-vis spectrophotometry.
For assay [12], the system named is Escherichia coli. Description: Inhibition of Escherichia coli beta-glucuronidase assessed as inhibition of p-nitrophenyl-beta-D-glucuronide hydrolysis at 0.10 mM preincubated for 30 mins measured 30 mins after substrate addition by spectrophotometry.
For assay [13], the target named is T1, Enoyl-acyl-carrier protein reductase (Plasmodium falciparum). As to conditions: 0.05 mM.
Description: Inhibition of Plasmodium falciparum Enoyl-ACP reductase using crotonyl-CoA as substrate at 0.05 mM peincubated for 5 mins measured after 10 mins of substrate addition by UV-vis spectrophotometry

Take `CC(C)=CCc1c(O)cc2occ(-c3ccc(O)cc3)c(=O)c2c1O` [WIGHTEONE]: in [1], the half-inhibitory concentration (IC50) came to 4.03 µM. In addition, the inhibition in assay [2] was 42.6%; in the assay on Escherichia coli [3], 97.3%.
Consider `COc1ccc(C(=O)O)cc1` [p-ANISIC ACID], for which the inhibition entry in assay [4] and in assay [5] was “inactive” throughout. Moreover, in assay [1], the IC50 came out at 124 µM. Also, the inhibition in the assay on Escherichia coli [3] was found to be 66.2%.
On to `CCCCC/C=C/CCCCCCC[C@@H](O)[C@@H](O)[C@H](CO)NC(=O)[C@H](O)CCCCCCCCCCCCCCCCCCCCCC`, for which the inhibition entry in assay [4] and in assay [5] was “inactive” throughout. Moreover, the inhibition in the assay on Escherichia coli [6] turned out to be 1.7%.
With `COc1c(-c2ccc(O)c(O)c2)oc2cc(O)cc(O)c2c1=O` [3-O-METHYLQUERCETIN], the figures for the concentration for half-maximal inhibition (IC50) in assay [7] and in assay [1] were 35.2 µM and 44.6 µM, respectively. Also, the inhibition in the assay with Escherichia coli [3] turned out to be 85.2%; in [8], 88.2%.
With `O=c1c(O)c(-c2ccc(O)cc2)oc2cc(O)cc(O)c12` [KAEMPFEROL], the inhibition was 6.5% in [5] and 87.5% in the assay on Escherichia coli [3]. Also, the concentration for half-maximal inhibition (IC50) in assay [1] came to 27.6 µM.
Take `CC1=C[C@H](c2cc(-c3coc4cc(O)cc(O)c4c3=O)ccc2O)[C@](C)(/C=C/c2cc(-c3coc4cc(O)cc(O)c4c3=O)ccc2O)CC1` [MUCUSISOFLAVONE A]: the inhibition entry in [4] and in [5] was “inactive” each time. Further, in assay [1], the IC50 turned out to be 0.68 µM. Besides, in the assay on Escherichia coli [9], the Ratio IC50 stood at 71. Also, the inhibition with Escherichia coli [3] was 98.7%.
`O=C(O)c1ccc(O)c(O)c1`: in the assay on Escherichia coli [3], the inhibition was 23.5%.
`CC1(C)C=Cc2c(cc3occ(-c4ccc(O)cc4)c(=O)c3c2O)O1`: the values for the inhibition (in [5]; in the assay on Escherichia coli [6]) were 12.6% and 17.6%, respectively.
On to `O=C(O)[C@@H](O)[C@H]1OC(=O)[C@H](O)[C@H]1O`, for which the inhibition with Escherichia coli [10] is 99.5%.
In the case of `CC(C)=CCc1cc(-c2coc3c(C(C=C(C)C)c4cc(-c5coc6cc(O)cc(O)c6c5=O)ccc4O)c(O)cc(O)c3c2=O)ccc1O` (centres undefined) [MUCUSISOFLAVONE C], the half-inhibitory concentration (IC50) in assay [7] was 7.69 µM; in assay [1], 3.08 µM. In addition, the inhibition turned out to be 89.1% in assay [11] and 94% in the assay on Escherichia coli [12].
`C[C@@H]1CC[C@]2(C(=O)O)CC[C@]3(C)C(=CC[C@@H]4[C@@]5(C)C[C@@H](O)[C@H](OC(=O)/C=C/c6ccc(O)cc6)C(C)(C)[C@@H]5CC[C@]43C)[C@@H]2[C@]1(C)O`: the inhibition was found to be 3.9% in assay [5] and 15.9% with Escherichia coli [6].
Consider `O=c1cc(-c2ccc(O)cc2)oc2cc(O)cc(O)c12`, for which, in the assay on Escherichia coli [3], the inhibition was determined as 15.7%.
As to `Oc1cc(Cl)ccc1Oc1ccc(Cl)cc1Cl` [TRICLOSAN], the midpoint of inhibition in assay [7], the IC50, lay at 0.2 µM. For the same compound, the inhibition in assay [13] came out at 99.5%.
Regarding `CC(C)=C[C@@H]1C[C@](C)(/C=C/c2cc(-c3coc4cc(O)cc(O)c4c3=O)ccc2O)Oc2ccc(-c3coc4cc(O)cc(O)c4c3=O)cc21` [MUCUSISOFLAVONE B], the inhibition result in [4] and in assay [5] was “inactive” in each case. In assay [1], the 50% inhibitory concentration (IC50) turned out to be 14 µM. Further, the inhibition in the assay with Escherichia coli [12] was 70.1%.

A word on the IC50: it is the concentration that gives 50% inhibition. What is called inhibition is the share of the control response that was lost under treatment.
